Measured values: ChEMBL document CHEMBL1142381, “Design, synthesis, and biological evaluation of (hydroxyphenyl)naphthalene and -quinoline derivatives: potent and selective nonsteroidal inhibitors of 17beta-hydroxysteroid dehydrogenase type 1 (17beta-HSD1) for the treatment of estrogen-dependent diseases” (J Med Chem, 2008)

Assays:
[1] = target: T1, 17-beta-hydroxysteroid dehydrogenase type 2 (Homo sapiens, UniProt P37059); test: Inhibition of human placental 17beta-HSD2
T1 sequence (P37059 whole entry): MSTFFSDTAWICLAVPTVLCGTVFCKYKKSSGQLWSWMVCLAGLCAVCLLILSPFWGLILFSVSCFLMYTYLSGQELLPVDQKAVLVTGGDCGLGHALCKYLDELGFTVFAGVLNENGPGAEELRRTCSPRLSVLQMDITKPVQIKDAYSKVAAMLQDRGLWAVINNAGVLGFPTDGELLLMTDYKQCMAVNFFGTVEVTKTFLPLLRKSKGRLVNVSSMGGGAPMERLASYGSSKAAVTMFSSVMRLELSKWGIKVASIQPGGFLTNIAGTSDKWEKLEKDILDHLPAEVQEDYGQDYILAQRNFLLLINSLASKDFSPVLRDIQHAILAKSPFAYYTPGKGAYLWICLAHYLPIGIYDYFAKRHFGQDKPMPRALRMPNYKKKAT

[2] = target: T2, Estrogen receptor (Homo sapiens) (UniProt P03372); test: Displacement of [3H]estradiol from human recombinant ERalpha relative to estradiol
T2 sequence (whole entry): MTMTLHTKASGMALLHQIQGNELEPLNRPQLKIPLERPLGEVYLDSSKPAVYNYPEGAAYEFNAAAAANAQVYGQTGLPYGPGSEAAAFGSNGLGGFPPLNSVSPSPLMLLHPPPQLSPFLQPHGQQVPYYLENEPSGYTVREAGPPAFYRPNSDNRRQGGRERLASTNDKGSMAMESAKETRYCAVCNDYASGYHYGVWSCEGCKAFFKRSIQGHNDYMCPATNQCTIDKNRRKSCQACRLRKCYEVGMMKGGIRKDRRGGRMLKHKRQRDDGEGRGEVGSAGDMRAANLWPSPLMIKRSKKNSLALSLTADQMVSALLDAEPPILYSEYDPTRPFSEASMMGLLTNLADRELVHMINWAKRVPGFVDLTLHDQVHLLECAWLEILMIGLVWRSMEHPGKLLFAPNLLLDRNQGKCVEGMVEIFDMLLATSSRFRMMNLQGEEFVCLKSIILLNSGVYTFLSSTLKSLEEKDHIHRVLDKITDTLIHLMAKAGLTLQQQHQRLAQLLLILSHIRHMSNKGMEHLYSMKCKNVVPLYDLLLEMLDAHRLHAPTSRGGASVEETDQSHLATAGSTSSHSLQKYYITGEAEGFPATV

Homo sapiens = species on record: Homo sapiens; test: Selectivity ratio for human placental 17beta-HSD1 over human placental 17beta-HSD2
[3] = target: Estrogen receptor beta (Homo sapiens) (UniProt Q92731); test: Displacement of [3H]estradiol from human recombinant ERbeta relative to estradiol
Chain of Estrogen receptor beta (Homo sapiens) (Q92731 whole entry): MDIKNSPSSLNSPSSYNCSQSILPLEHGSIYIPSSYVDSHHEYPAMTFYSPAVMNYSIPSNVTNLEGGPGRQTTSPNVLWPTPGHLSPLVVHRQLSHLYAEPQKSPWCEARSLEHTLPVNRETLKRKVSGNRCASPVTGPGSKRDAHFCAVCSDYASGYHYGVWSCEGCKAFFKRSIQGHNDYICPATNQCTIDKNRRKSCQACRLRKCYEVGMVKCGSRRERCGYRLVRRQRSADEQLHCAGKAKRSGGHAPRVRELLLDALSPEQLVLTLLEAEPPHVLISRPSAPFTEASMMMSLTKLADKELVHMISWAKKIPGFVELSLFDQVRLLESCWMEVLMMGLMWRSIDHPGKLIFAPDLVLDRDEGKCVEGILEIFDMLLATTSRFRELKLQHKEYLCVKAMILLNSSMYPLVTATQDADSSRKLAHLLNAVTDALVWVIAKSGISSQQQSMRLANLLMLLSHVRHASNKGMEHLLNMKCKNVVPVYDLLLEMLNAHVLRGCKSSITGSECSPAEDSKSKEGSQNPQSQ

[4] = target: T3, 17-beta-hydroxysteroid dehydrogenase type 1 (Homo sapiens, UniProt P14061); test: Inhibition of human placental 17beta-HSD1
T3 sequence (P14061 whole entry): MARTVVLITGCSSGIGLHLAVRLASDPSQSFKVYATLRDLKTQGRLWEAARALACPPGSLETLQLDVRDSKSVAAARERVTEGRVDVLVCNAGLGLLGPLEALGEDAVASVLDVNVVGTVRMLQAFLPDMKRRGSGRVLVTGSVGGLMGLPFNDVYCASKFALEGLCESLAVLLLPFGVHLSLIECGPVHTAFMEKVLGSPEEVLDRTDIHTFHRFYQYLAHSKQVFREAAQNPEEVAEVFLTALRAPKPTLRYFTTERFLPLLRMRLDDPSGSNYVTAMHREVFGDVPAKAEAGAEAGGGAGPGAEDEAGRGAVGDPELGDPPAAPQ

[5] = target: T4, 17-beta-hydroxysteroid dehydrogenase type 1 (Homo sapiens) (UniProt P14061); test: Inhibition of human recombinant 17beta-HSD1 expressed in Sf9 insect cells at 100 nM
T4 sequence (whole entry): T3 sequence (P14061 whole entry)

[6] = target: T4, 17-beta-hydroxysteroid dehydrogenase type 1 (Homo sapiens); test: Inhibition of human recombinant 17beta-HSD1 expressed in Sf9 insect cells at 1 uM
[7] = Apparent permeability across human Caco-2 cell membrane; type: ADME, cell-based

Structure (SMILES) | inhibition [5] [%] | inhibition [6] [%] | also measured
Oc1ccc(-c2ccc3c(O)cccc3c2)cc1 | – | – | IC50 [1]: 302 nM; RBA [2]: 5%; Ratio IC50 (Homo sapiens): 0.1; RBA [3]: 5%; IC50 [4]: 2420 nM
Oc1ccc2cc(-c3cccs3)ccc2c1 | < 10 | < 10 | –
Nc1cccc(-c2ccc3cc(O)ccc3c2)c1 | < 10 | < 10 | –
OCc1cccc(-c2ccc3cc(O)ccc3c2)c1 | < 10 | < 10 | –
Oc1ccc(-c2ccc3cc(O)ccc3c2)cc1 | < 10 | < 10 | –
Oc1cncc(-c2ccc3cc(O)ccc3c2)c1 | 30 | 58 | IC50 [1]: > 10000 nM; RBA [2]: 0.01%; Ratio IC50 (Homo sapiens): > 8; RBA [3]: 1%; IC50 [4]: 1230 nM
Oc1cccc(-c2ccc3cc(O)ccc3n2)c1 | 14 | 63 | –
Oc1ccc2cc(-c3cccnc3)ccc2c1 | < 10 | 32 | –
Oc1cccc(-c2ccc3cc(O)ccc3c2)c1 | – | – | RBA [2]: 0.2%; Papp [7]: 8.9 ×10⁻⁶ cm/s; RBA [3]: 0.8%; IC50 [4]: 116 nM
Oc1cccc(-c2ccc3c(O)cccc3c2)c1 | < 10 | 23 | –
C[C@]12CC[C@@H]3c4ccc(O)cc4CC[C@H]3[C@@H]1CC(CCCCCCCCC(=O)OC[C@H]1O[C@@H](n3cnc4c(N)ncnc43)[C@H](O)[C@@H]1O)[C@@H]2O (stereo partly drawn) | – | – | IC50 [4]: 52 nM
Oc1ccc(-c2cnc3ccccc3c2)cc1 | < 10 | < 10 | –
Oc1cccc(-c2ccc3ccccc3c2)c1 | 26 | 61 | IC50 [1]: 4010 nM; RBA [2]: 0.01%; Ratio IC50 (Homo sapiens): 1.8; RBA [3]: 0.01%; IC50 [4]: 2260 nM
Oc1ccc(-c2cnc3cc(O)ccc3c2)cc1 | < 10 | < 10 | –
O=C1CCCc2cc(-c3cccc(O)c3)ccc21 | < 10 | 23 | –
Oc1ccc2cc(-c3ccccc3)ccc2c1 | < 10 | < 10 | –
CC(=O)Nc1cccc(-c2ccc3cc(O)ccc3c2)c1 | < 10 | 19 | –
Oc1cccc(-c2cnc3ccccc3c2)c1 | < 10 | 18 | –

Now from value to molecule, other results behind:

inhibition [5] [%] | inhibition [6] [%] | Structure (SMILES) | also measured
< 10 | < 10 | Oc1cccc(-c2cc3cc(O)ccc3[nH]2)c1 | –
< 10 | < 10 | Oc1ccc2cc(-c3ccsc3)ccc2c1 | –
< 10 | < 10 | O=C(O)c1ccc(-c2ccc3cc(O)ccc3c2)cc1 | –
< 10 | 13 | OCc1ccc(-c2ccc3cc(O)ccc3c2)cc1 | –
36 | 76 | O=C(O)c1cccc(-c2ccc3cc(O)ccc3c2)c1 | –
24 | 57 | Oc1cccc(-c2cnc3cc(O)ccc3c2)c1 | –
< 10 | < 10 | Oc1ccc2cc(-c3ccccc3O)ccc2c1 | –
16 | 62 | Oc1cccc(-c2ccc3ccc(O)cc3c2)c1 | –
< 10 | < 10 | O=[N+]([O-])c1cccc(-c2ccc3cc(O)ccc3c2)c1 | –
